# From the kinase profiling compilation of Christmann-Franck et al. (2016)
# Key:
# Assay in all cases: KINOMEscan competition binding
# Details in all cases: compound 10.0 µM
# CIT (human) = CIT (human) (UniProt O14578)
# CSNK2A1 (human) = CSNK2A1 (human) (UniProt P68400)
# MARK3 (human) = MARK3 (human) (UniProt P27448)
# RPS6KA1 KD2 (human) = RPS6KA1 KD2 (human) (UniProt Q15418)
# WEE1 (human) = WEE1 (human) (UniProt P30291)
# EPHA2 (human) = EPHA2 (human) (UniProt P29317)
# MKNK1 (human) = MKNK1 (human) (UniProt Q9BUB5)
# MAP2K3 (human) = MAP2K3 (human) (UniProt P46734)
# ULK3 (human) = ULK3 (human) (UniProt Q6PHR2)
# NUAK1 (human) = NUAK1 (human) (UniProt O60285)
# [1] = target: JAK2 JH1 catalytic (human) (UniProt O60674)
# TGFBR1 (human) = TGFBR1 (human) (UniProt P36897)
# SGK110 (human) = SGK110 (human) (UniProt P0C264)
# NEK5 (human) = NEK5 (human) (UniProt Q6P3R8)
# PHKG1 (human) = PHKG1 (human) (UniProt Q16816)
# CDKL2 (human) = CDKL2 (human) (UniProt Q92772)
# ULK1 (human) = ULK1 (human) (UniProt O75385)
# CDK19 (human) = CDK19 (human) (UniProt Q9BWU1)
# MAPK9 (human) = MAPK9 (human) (UniProt P45984)
# MINK1 (human) = MINK1 (human) (UniProt Q8N4C8)
# [2] = test system: EGFR (human), P00533 [747-751 del / S ins]
# PDPK1 (human) = PDPK1 (human) (UniProt O15530)
# SLK (human) = SLK (human) (UniProt Q9H2G2)
# [3] = test system: KIT (human), P10721 [V559D/V654A]
# KIT (human) = KIT (human) (UniProt P10721)
# DYRK1B (human) = DYRK1B (human) (UniProt Q9Y463)
# MAP3K9 (human) = MAP3K9 (human) (UniProt P80192)
# TNK1 (human) = TNK1 (human) (UniProt Q13470)
# WEE2 (human) = WEE2 (human) (UniProt P0C1S8)
# BMPR1B (human) = BMPR1B (human) (UniProt O00238)
# TSSK1B (human) = TSSK1B (human) (UniProt Q9BXA7)
# MAPK13 (human) = MAPK13 (human) (UniProt O15264)
# MST4 (human) = MST4 (human) (UniProt Q9P289)
# CSNK1A1L (human) = CSNK1A1L (human) (UniProt Q8N752)
# ROS1 (human) = ROS1 (human) (UniProt P08922)
# STK32B (human) = STK32B (human) (UniProt Q9NY57)
# FGFR2 (human) = FGFR2 (human) (UniProt P21802)
# STK39 (human) = STK39 (human) (UniProt Q9UEW8)
# MAK (human) = MAK (human) (UniProt P20794)
# Chain of SLK (human) (Q9H2G2 whole entry, looked up): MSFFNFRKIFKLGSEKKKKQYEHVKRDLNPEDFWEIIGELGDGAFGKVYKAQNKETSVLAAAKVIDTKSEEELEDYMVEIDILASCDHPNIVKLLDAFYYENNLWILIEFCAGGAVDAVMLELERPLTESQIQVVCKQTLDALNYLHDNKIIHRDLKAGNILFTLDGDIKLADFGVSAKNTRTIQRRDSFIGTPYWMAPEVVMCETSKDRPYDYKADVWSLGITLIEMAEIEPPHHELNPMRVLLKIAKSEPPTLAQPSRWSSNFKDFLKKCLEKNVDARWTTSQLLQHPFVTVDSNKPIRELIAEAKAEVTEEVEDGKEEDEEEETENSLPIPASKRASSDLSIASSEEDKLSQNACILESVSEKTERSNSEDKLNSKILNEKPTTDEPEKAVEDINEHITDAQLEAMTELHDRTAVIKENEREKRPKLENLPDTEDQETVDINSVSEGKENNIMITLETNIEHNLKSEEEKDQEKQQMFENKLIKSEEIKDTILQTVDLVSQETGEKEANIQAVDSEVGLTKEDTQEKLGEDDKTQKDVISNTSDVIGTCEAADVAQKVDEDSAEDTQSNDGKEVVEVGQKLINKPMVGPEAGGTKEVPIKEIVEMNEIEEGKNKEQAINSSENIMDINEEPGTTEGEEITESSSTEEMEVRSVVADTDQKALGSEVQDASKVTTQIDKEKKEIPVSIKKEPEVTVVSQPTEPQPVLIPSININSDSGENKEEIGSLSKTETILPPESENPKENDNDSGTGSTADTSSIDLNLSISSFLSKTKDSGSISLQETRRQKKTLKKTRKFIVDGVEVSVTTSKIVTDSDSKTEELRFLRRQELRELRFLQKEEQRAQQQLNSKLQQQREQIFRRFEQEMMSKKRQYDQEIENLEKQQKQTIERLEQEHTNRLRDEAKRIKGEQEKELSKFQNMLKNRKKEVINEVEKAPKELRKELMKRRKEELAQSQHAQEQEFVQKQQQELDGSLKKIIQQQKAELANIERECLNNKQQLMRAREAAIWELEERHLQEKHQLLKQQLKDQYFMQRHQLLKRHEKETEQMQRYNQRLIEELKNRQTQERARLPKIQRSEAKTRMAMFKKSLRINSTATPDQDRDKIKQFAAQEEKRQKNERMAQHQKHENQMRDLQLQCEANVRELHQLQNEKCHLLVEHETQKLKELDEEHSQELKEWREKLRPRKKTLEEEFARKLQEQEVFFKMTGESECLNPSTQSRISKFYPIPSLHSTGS
# Chain of SGK110 (human) (P0C264 whole entry, looked up): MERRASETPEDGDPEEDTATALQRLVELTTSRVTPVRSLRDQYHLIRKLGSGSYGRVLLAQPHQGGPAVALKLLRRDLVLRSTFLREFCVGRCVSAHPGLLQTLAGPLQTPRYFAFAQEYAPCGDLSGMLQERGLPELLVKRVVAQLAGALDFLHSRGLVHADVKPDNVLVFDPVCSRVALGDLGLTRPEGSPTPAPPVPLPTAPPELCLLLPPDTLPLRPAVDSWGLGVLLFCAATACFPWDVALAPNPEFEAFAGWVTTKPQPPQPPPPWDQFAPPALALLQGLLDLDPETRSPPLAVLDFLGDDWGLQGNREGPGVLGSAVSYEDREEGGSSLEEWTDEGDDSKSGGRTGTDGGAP
# Chain of MAP3K9 (human) (P80192 whole entry, looked up): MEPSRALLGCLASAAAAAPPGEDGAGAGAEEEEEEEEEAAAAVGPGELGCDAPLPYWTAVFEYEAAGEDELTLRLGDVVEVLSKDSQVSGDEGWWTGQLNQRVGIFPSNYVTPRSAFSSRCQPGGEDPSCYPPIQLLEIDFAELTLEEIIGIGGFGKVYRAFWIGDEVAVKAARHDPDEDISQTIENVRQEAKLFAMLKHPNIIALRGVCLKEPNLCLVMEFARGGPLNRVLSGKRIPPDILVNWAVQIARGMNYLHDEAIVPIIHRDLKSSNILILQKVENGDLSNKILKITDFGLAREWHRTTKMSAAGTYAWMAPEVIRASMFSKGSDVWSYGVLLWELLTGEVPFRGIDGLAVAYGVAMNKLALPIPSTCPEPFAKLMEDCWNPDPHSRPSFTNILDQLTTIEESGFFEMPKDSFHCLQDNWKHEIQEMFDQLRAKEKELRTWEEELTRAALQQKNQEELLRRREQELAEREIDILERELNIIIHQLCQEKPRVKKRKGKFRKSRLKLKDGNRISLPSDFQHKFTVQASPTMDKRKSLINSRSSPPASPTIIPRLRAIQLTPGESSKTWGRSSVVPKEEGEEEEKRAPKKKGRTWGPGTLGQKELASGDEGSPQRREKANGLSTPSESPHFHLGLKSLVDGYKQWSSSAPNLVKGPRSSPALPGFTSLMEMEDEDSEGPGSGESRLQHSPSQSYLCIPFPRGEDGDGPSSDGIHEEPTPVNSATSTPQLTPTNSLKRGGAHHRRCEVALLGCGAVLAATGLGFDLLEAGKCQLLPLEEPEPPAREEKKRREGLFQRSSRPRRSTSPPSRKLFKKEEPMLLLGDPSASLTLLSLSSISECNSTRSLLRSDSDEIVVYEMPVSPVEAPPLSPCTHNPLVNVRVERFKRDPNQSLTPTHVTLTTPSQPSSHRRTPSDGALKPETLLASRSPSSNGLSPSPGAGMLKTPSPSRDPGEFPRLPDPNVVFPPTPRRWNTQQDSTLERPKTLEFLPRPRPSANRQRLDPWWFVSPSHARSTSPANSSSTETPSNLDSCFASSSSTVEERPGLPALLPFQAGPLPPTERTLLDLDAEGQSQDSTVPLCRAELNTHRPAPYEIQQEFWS
# Chain of EPHA2 (human) (P29317 whole entry, looked up): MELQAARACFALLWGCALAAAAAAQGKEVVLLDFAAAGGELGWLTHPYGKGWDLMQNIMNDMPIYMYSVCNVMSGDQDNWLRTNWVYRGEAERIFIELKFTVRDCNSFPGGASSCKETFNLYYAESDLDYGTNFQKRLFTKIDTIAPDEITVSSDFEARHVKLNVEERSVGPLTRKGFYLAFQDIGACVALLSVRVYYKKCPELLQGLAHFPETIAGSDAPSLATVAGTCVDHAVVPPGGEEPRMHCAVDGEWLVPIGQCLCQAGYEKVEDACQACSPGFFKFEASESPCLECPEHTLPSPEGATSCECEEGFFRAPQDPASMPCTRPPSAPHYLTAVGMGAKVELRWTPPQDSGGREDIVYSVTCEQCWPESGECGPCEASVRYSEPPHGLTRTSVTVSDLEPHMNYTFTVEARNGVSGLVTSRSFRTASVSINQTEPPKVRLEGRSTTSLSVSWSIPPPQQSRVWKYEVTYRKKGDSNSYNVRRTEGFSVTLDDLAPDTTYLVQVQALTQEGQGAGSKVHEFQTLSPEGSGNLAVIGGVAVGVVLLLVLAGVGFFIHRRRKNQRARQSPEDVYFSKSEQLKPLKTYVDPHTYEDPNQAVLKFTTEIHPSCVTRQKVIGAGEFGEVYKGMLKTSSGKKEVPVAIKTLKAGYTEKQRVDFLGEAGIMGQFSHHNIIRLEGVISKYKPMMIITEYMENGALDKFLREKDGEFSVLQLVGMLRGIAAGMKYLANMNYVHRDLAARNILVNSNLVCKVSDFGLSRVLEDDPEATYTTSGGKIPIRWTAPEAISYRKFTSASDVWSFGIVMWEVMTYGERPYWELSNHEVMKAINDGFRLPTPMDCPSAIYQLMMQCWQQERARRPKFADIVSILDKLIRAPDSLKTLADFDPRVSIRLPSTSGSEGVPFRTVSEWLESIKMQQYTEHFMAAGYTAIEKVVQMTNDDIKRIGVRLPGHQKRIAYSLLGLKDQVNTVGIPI
# Chain of ULK3 (human) (Q6PHR2 whole entry, looked up): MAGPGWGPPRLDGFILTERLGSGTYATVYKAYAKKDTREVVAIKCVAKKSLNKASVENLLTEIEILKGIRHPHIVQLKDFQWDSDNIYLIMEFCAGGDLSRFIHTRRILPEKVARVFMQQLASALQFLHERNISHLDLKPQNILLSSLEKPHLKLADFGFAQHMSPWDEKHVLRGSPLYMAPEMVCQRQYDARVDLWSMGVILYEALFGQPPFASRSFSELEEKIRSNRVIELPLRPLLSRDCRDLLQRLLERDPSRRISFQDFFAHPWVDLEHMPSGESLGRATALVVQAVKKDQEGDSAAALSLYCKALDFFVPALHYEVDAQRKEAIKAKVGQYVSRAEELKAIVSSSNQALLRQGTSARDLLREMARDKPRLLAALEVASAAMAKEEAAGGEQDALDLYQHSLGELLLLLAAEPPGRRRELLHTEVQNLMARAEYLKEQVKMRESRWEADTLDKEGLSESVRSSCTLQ
# Chain of CSNK1A1L (human) (Q8N752 whole entry, looked up): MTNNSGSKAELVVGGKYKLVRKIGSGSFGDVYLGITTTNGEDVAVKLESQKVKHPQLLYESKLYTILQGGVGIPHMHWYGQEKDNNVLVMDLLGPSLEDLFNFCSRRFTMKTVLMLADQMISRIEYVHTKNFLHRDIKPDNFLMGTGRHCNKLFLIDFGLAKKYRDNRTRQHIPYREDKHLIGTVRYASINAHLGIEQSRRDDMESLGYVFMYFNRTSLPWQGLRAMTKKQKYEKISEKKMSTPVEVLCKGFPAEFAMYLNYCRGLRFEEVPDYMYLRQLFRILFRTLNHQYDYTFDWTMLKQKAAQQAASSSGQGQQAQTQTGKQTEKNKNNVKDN
# Chain of PDPK1 (human) (O15530 whole entry, looked up): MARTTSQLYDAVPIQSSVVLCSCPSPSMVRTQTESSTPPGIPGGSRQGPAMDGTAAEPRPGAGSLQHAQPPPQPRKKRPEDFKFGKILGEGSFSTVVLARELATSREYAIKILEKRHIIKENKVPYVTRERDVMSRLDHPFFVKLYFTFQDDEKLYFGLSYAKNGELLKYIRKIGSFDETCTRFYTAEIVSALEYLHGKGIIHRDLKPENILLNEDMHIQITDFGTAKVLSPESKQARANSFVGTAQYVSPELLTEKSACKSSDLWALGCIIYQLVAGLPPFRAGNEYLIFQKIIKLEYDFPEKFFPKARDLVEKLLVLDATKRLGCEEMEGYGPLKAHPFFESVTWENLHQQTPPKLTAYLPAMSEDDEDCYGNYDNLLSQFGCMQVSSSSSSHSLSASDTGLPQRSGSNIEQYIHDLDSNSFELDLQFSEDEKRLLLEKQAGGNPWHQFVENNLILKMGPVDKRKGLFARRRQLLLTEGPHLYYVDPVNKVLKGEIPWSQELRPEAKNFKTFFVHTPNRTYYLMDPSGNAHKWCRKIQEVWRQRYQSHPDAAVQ
Structure (SMILES),"kinase still bound, per cent of control (CIT (human))","kinase still bound, per cent of control (CSNK2A1 (human))","kinase still bound, per cent of control (MARK3 (human))","kinase still bound, per cent of control (RPS6KA1 KD2 (human))","kinase still bound, per cent of control (WEE1 (human))","kinase still bound, per cent of control (EPHA2 (human))","kinase still bound, per cent of control (MKNK1 (human))","kinase still bound, per cent of control (MAP2K3 (human))","kinase still bound, per cent of control (ULK3 (human))","kinase still bound, per cent of control (NUAK1 (human))","kinase still bound, per cent of control [1]","kinase still bound, per cent of control (TGFBR1 (human))","kinase still bound, per cent of control (SGK110 (human))","kinase still bound, per cent of control (NEK5 (human))","kinase still bound, per cent of control (PHKG1 (human))","kinase still bound, per cent of control (CDKL2 (human))","kinase still bound, per cent of control (ULK1 (human))","kinase still bound, per cent of control (CDK19 (human))","kinase still bound, per cent of control (MAPK9 (human))","kinase still bound, per cent of control (MINK1 (human))",also measured
CNC(=O)c1ccc(Nc2cc(Nc3ccccc3S(=O)(=O)C(C)C)c3cc[nH]c3n2)nc1,100%,4.4%,13%,100%,100%,100%,100%,10%,3.7%,0.95%,1.6%,100%,7.4%,100%,100%,100%,7.2%,100%,100%,100%,"kinase still bound, per cent of control [2]: 100%; kinase still bound, per cent of control (PDPK1 (human)): 100%; kinase still bound, per cent of control (SLK (human)): 0%; kinase still bound, per cent of control [3]: 100%; kinase still bound, per cent of control (KIT (human)): 20%; kinase still bound, per cent of control (DYRK1B (human)): 8.8%; kinase still bound, per cent of control (MAP3K9 (human)): 0.85%; kinase still bound, per cent of control (TNK1 (human)): 4%; kinase still bound, per cent of control (WEE2 (human)): 100%; kinase still bound, per cent of control (BMPR1B (human)): 3.4%; kinase still bound, per cent of control (TSSK1B (human)): 100%; kinase still bound, per cent of control (MAPK13 (human)): 100%; kinase still bound, per cent of control (MST4 (human)): 19%; kinase still bound, per cent of control (CSNK1A1L (human)): 26%; kinase still bound, per cent of control (ROS1 (human)): 0.85%; kinase still bound, per cent of control (STK32B (human)): 100%; kinase still bound, per cent of control (FGFR2 (human)): 25%"
NC(=O)Nc1cc(-c2cccc(F)c2)sc1C(=O)N[C@@H]1CCCNC1,0.2%,0.35%,0.85%,1.4%,50%,7.4%,6%,10%,0%,0%,0%,47%,0%,90%,0.1%,60%,0%,100%,38%,1.6%,"kinase still bound, per cent of control (STK39 (human)): 4.4%; kinase still bound, per cent of control [2]: 2.4%; kinase still bound, per cent of control (PDPK1 (human)): 0.7%; kinase still bound, per cent of control (SLK (human)): 0.05%; kinase still bound, per cent of control (MAK (human)): 100%; kinase still bound, per cent of control (DYRK1B (human)): 1.8%; kinase still bound, per cent of control (MAP3K9 (human)): 0.15%; kinase still bound, per cent of control (TNK1 (human)): 1.4%; kinase still bound, per cent of control (WEE2 (human)): 91%; kinase still bound, per cent of control (BMPR1B (human)): 0.1%; kinase still bound, per cent of control (TSSK1B (human)): 2.6%; kinase still bound, per cent of control (MAPK13 (human)): 100%; kinase still bound, per cent of control (MST4 (human)): 0.15%; kinase still bound, per cent of control (CSNK1A1L (human)): 2.4%; kinase still bound, per cent of control (ROS1 (human)): 2%; kinase still bound, per cent of control (STK32B (human)): 1%; kinase still bound, per cent of control (FGFR2 (human)): 11%"
COCC(=O)NC/C=C/c1ccc2ncnc(Nc3ccc(Oc4ccc(C)nc4)c(C)c3)c2c1,76%,87%,100%,73%,100%,100%,100%,100%,68%,100%,100%,100%,100%,100%,100%,91%,47%,0.5%,53%,77%,"kinase still bound, per cent of control (STK39 (human)): 100%; kinase still bound, per cent of control (PDPK1 (human)): 100%; kinase still bound, per cent of control (SLK (human)): 60%; kinase still bound, per cent of control [3]: 88%; kinase still bound, per cent of control (MAK (human)): 90%; kinase still bound, per cent of control (DYRK1B (human)): 92%; kinase still bound, per cent of control (MAP3K9 (human)): 74%; kinase still bound, per cent of control (TNK1 (human)): 86%; kinase still bound, per cent of control (WEE2 (human)): 81%; kinase still bound, per cent of control (BMPR1B (human)): 74%; kinase still bound, per cent of control (TSSK1B (human)): 100%; kinase still bound, per cent of control (MAPK13 (human)): 100%; kinase still bound, per cent of control (MST4 (human)): 90%; kinase still bound, per cent of control (CSNK1A1L (human)): 82%; kinase still bound, per cent of control (ROS1 (human)): 100%; kinase still bound, per cent of control (STK32B (human)): 92%; kinase still bound, per cent of control (FGFR2 (human)): 100%"
